Values of other authors, collected in patent US9610269B2, “Method of treating a disease condition susceptible to baclofen therapy” (SUN PHARMA ADVANCED RESEARCH COMPANY LTD., priority 2010, dated 2017).

Key:
[1] = at the actual pH values
[2] = in vivo

In the case of `NCC(CC(=O)O)c1ccc(Cl)cc1` (stereo not shown) [baclofen, 4-amino-3-(p-chlorophenyl) butyric acid], the “lipophilicity of the drug” value [1] is given as “negligible”, the Plasma elimination half-life [2] is given as “approximately 3.5 hours” and the “fraction metabolized in the liver” value [2] is given as 15%. The “serum concentration considered an effective concentration” value [2] was ≥ 80 ng/mL.
